Results published in US4464385A, “Treatment of diabetic complications with hydantoins” (Alcon Laboratories, Inc., priority 1982, dated 1984).

Tested on: cataracts in rats
Test: Prevention or retardation of cataracts in galactose-fed rats
Type: in vivo, rat
Conditions: 30% galactose diet, A,C,E 0.0025%, B,D 0.01%
Procedure: The compounds to be tested were:
Test compound/diet mixtures were formulated as follows: […]
Similarly, the 0.01% level was designed to provide a drug concentration of 20 mg per kilogram per day.
All animals were fed the Purina Laboratory Chow and water, ad libitum for a two day acclimatization period. The indicated test compound/diet mixture then was introduced to all animals on Study Day 1 and the animals were maintained on this diet throughout thirty days of the study.
Sufficient amounts of test compound/diet mixture were maintained in the food hoppers to allow the animals to eat ad libitum. All aliquots of test compound/diet mixture added to the food hoopers were weighed and the weights, as well as day of addition, recorded.
Twelve animals were assigned to each treatment with each compound at the indicated percentage by total weight of feed. All eyes were examined with a handheld ophthalmoscope and/or penlight.

O=C1NC(=O)C2(CCOc3ccc(F)cc32)N1 (stereo not drawn) [E]
% of Total Eyes, + (vacuole) (Study Day 2): 0%
% of Total Eyes, - (Normal) (Study Day 2): 100.0%
% of Total Eyes, N (nuclear cataract) (Study Day 2): 0%
% of Total Eyes, S (snowflake) (Study Day 2): 0%
Number of Eyes Observed, + (vacuole) (Study Day 2): 0 eyes
Number of Eyes Observed, - (Normal) (Study Day 2): 24 eyes
Number of Eyes Observed, N (nuclear cataract) (Study Day 2): 0 eyes
Number of Eyes Observed, S (snowflake) (Study Day 2): 0 eyes
Number of Eyes Observed, ± (Study Day 2): 0 eyes
% of Total Eyes, + (vacuole) (Study Day 3): 0%
% of Total Eyes, - (Normal) (Study Day 3): 100.0%
% of Total Eyes, N (nuclear cataract) (Study Day 3): 0%
% of Total Eyes, S (snowflake) (Study Day 3): 0%
Number of Eyes Observed, + (vacuole) (Study Day 3): 0 eyes
Number of Eyes Observed, - (Normal) (Study Day 3): 24 eyes
Number of Eyes Observed, N (nuclear cataract) (Study Day 3): 0 eyes
Number of Eyes Observed, S (snowflake) (Study Day 3): 0 eyes
Number of Eyes Observed, ± (Study Day 3): 0 eyes
% of Total Eyes, + (vacuole) (Study Day 4): 0%
% of Total Eyes, - (Normal) (Study Day 4): 100.0%
% of Total Eyes, N (nuclear cataract) (Study Day 4): 0%
% of Total Eyes, S (snowflake) (Study Day 4): 0%
Number of Eyes Observed, + (vacuole) (Study Day 4): 0 eyes
Number of Eyes Observed, - (Normal) (Study Day 4): 24 eyes
Number of Eyes Observed, N (nuclear cataract) (Study Day 4): 0 eyes
Number of Eyes Observed, S (snowflake) (Study Day 4): 0 eyes
Number of Eyes Observed, ± (Study Day 4): 0 eyes
% of Total Eyes, + (vacuole) (Study Day 5): 0%
% of Total Eyes, - (Normal) (Study Day 5): 100.0%
% of Total Eyes, N (nuclear cataract) (Study Day 5): 0%
% of Total Eyes, S (snowflake) (Study Day 5): 0%
Number of Eyes Observed, + (vacuole) (Study Day 5): 0 eyes
Number of Eyes Observed, - (Normal) (Study Day 5): 24 eyes
Number of Eyes Observed, N (nuclear cataract) (Study Day 5): 0 eyes
Number of Eyes Observed, S (snowflake) (Study Day 5): 0 eyes
Number of Eyes Observed, ± (Study Day 5): 0 eyes
% of Total Eyes, + (vacuole) (Study Day 6): 0%
% of Total Eyes, - (Normal) (Study Day 6): 100.0%
% of Total Eyes, N (nuclear cataract) (Study Day 6): 0%
% of Total Eyes, S (snowflake) (Study Day 6): 0%
Number of Eyes Observed, + (vacuole) (Study Day 6): 0 eyes
Number of Eyes Observed, - (Normal) (Study Day 6): 24 eyes
Number of Eyes Observed, N (nuclear cataract) (Study Day 6): 0 eyes
Number of Eyes Observed, S (snowflake) (Study Day 6): 0 eyes
Number of Eyes Observed, ± (Study Day 6): 0 eyes
% of Total Eyes, + (vacuole) (Study Day 8): 0%
% of Total Eyes, - (Normal) (Study Day 8): 100.0%
% of Total Eyes, N (nuclear cataract) (Study Day 8): 0%
% of Total Eyes, S (snowflake) (Study Day 8): 0%
Number of Eyes Observed, + (vacuole) (Study Day 8): 0 eyes
Number of Eyes Observed, - (Normal) (Study Day 8): 24 eyes
Number of Eyes Observed, N (nuclear cataract) (Study Day 8): 0 eyes
Number of Eyes Observed, S (snowflake) (Study Day 8): 0 eyes
Number of Eyes Observed, ± (Study Day 8): 0 eyes
% of Total Eyes, + (vacuole) (Study Day 10): 0%
% of Total Eyes, - (Normal) (Study Day 10): 100.0%
% of Total Eyes, N (nuclear cataract) (Study Day 10): 0%
% of Total Eyes, S (snowflake) (Study Day 10): 0%
Number of Eyes Observed, + (vacuole) (Study Day 10): 0 eyes
Number of Eyes Observed, - (Normal) (Study Day 10): 24 eyes
Number of Eyes Observed, N (nuclear cataract) (Study Day 10): 0 eyes
Number of Eyes Observed, S (snowflake) (Study Day 10): 0 eyes
Number of Eyes Observed, ± (Study Day 10): 0 eyes
% of Total Eyes, + (vacuole) (Study Day 12): 0%
% of Total Eyes, - (Normal) (Study Day 12): 95.8%
% of Total Eyes, N (nuclear cataract) (Study Day 12): 0%
% of Total Eyes, S (snowflake) (Study Day 12): 0%
Number of Eyes Observed, + (vacuole) (Study Day 12): 0 eyes
Number of Eyes Observed, - (Normal) (Study Day 12): 23 eyes
Number of Eyes Observed, N (nuclear cataract) (Study Day 12): 0 eyes
Number of Eyes Observed, S (snowflake) (Study Day 12): 0 eyes
Number of Eyes Observed, ± (Study Day 12): 1 eyes
% of Total Eyes, + (vacuole) (Study Day 14): 0%
% of Total Eyes, - (Normal) (Study Day 14): 87.5%
% of Total Eyes, N (nuclear cataract) (Study Day 14): 0%
% of Total Eyes, S (snowflake) (Study Day 14): 0%
Number of Eyes Observed, + (vacuole) (Study Day 14): 0 eyes
Number of Eyes Observed, - (Normal) (Study Day 14): 21 eyes
Number of Eyes Observed, N (nuclear cataract) (Study Day 14): 0 eyes
Number of Eyes Observed, S (snowflake) (Study Day 14): 0 eyes
Number of Eyes Observed, ± (Study Day 14): 3 eyes
% of Total Eyes, + (vacuole) (Study Day 16): 0%
% of Total Eyes, - (Normal) (Study Day 16): 83.3%
% of Total Eyes, N (nuclear cataract) (Study Day 16): 0%
% of Total Eyes, S (snowflake) (Study Day 16): 0%
Number of Eyes Observed, + (vacuole) (Study Day 16): 0 eyes
Number of Eyes Observed, - (Normal) (Study Day 16): 20 eyes
Number of Eyes Observed, N (nuclear cataract) (Study Day 16): 0 eyes
Number of Eyes Observed, S (snowflake) (Study Day 16): 0 eyes
Number of Eyes Observed, ± (Study Day 16): 4 eyes
% of Total Eyes, + (vacuole) (Study Day 18): 0%
% of Total Eyes, - (Normal) (Study Day 18): 58.4%
% of Total Eyes, N (nuclear cataract) (Study Day 18): 0%
% of Total Eyes, S (snowflake) (Study Day 18): 0%
Number of Eyes Observed, + (vacuole) (Study Day 18): 0 eyes
Number of Eyes Observed, - (Normal) (Study Day 18): 14 eyes
Number of Eyes Observed, N (nuclear cataract) (Study Day 18): 0 eyes
Number of Eyes Observed, S (snowflake) (Study Day 18): 0 eyes
Number of Eyes Observed, ± (Study Day 18): 10 eyes
% of Total Eyes, + (vacuole) (Study Day 20): 4.2%
% of Total Eyes, - (Normal) (Study Day 20): 12.5%
% of Total Eyes, N (nuclear cataract) (Study Day 20): 0%
% of Total Eyes, S (snowflake) (Study Day 20): 41.6%
Number of Eyes Observed, + (vacuole) (Study Day 20): 1 eyes
Number of Eyes Observed, - (Normal) (Study Day 20): 3 eyes
Number of Eyes Observed, N (nuclear cataract) (Study Day 20): 0 eyes
Number of Eyes Observed, S (snowflake) (Study Day 20): 10 eyes
Number of Eyes Observed, ± (Study Day 20): 10 eyes
% of Total Eyes, + (vacuole) (Study Day 22): 8.3%
% of Total Eyes, - (Normal) (Study Day 22): 0%
% of Total Eyes, N (nuclear cataract) (Study Day 22): 0%
% of Total Eyes, S (snowflake) (Study Day 22): 66.7%
Number of Eyes Observed, + (vacuole) (Study Day 22): 2 eyes
Number of Eyes Observed, - (Normal) (Study Day 22): 0 eyes
Number of Eyes Observed, N (nuclear cataract) (Study Day 22): 0 eyes
Number of Eyes Observed, S (snowflake) (Study Day 22): 16 eyes
Number of Eyes Observed, ± (Study Day 22): 6 eyes
% of Total Eyes, + (vacuole) (Study Day 24): 12.5%
% of Total Eyes, - (Normal) (Study Day 24): 0%
% of Total Eyes, N (nuclear cataract) (Study Day 24): 0%
% of Total Eyes, S (snowflake) (Study Day 24): 83.3%
Number of Eyes Observed, + (vacuole) (Study Day 24): 3 eyes
Number of Eyes Observed, - (Normal) (Study Day 24): 0 eyes
Number of Eyes Observed, N (nuclear cataract) (Study Day 24): 0 eyes
Number of Eyes Observed, S (snowflake) (Study Day 24): 20 eyes
Number of Eyes Observed, ± (Study Day 24): 1 eyes
% of Total Eyes, + (vacuole) (Study Day 26): 16.7%
% of Total Eyes, - (Normal) (Study Day 26): 0%
% of Total Eyes, N (nuclear cataract) (Study Day 26): 0%
% of Total Eyes, S (snowflake) (Study Day 26): 83.3%
Number of Eyes Observed, + (vacuole) (Study Day 26): 4 eyes
Number of Eyes Observed, - (Normal) (Study Day 26): 0 eyes
Number of Eyes Observed, N (nuclear cataract) (Study Day 26): 0 eyes
Number of Eyes Observed, S (snowflake) (Study Day 26): 20 eyes
Number of Eyes Observed, ± (Study Day 26): 0 eyes
% of Total Eyes, + (vacuole) (Study Day 28): 8.3%
% of Total Eyes, - (Normal) (Study Day 28): 0%
% of Total Eyes, N (nuclear cataract) (Study Day 28): 0%
% of Total Eyes, S (snowflake) (Study Day 28): 91.7%
Number of Eyes Observed, + (vacuole) (Study Day 28): 2 eyes
Number of Eyes Observed, - (Normal) (Study Day 28): 0 eyes
Number of Eyes Observed, N (nuclear cataract) (Study Day 28): 0 eyes
Number of Eyes Observed, S (snowflake) (Study Day 28): 22 eyes
Number of Eyes Observed, ± (Study Day 28): 0 eyes
% of Total Eyes, + (vacuole) (Study Day 30): 4.2%
% of Total Eyes, - (Normal) (Study Day 30): 0%
% of Total Eyes, N (nuclear cataract) (Study Day 30): 0%
% of Total Eyes, S (snowflake) (Study Day 30): 95.8%
Number of Eyes Observed, + (vacuole) (Study Day 30): 1 eyes
Number of Eyes Observed, - (Normal) (Study Day 30): 0 eyes
Number of Eyes Observed, N (nuclear cataract) (Study Day 30): 0 eyes
Number of Eyes Observed, S (snowflake) (Study Day 30): 23 eyes
Number of Eyes Observed, ± (Study Day 30): 0 eyes
